{
  "source": "paper PMC11762167",
  "about": "“G Protein-Coupled Receptor 17 Inhibits Glucagon-like Peptide-1 Secretion via a Gi/o-Dependent Mechanism in Enteroendocrine Cells” (Biomolecules, 2024)",
  "key": {"hGPR17L-V96M": {"target": "T1, hGPR17L-V96M (Homo sapiens, UniProt Q13304, V96M)", "T1 construct": "host or cells: GLUTag cells, adenoviral transduction", "T1 sequence (Q13304 whole entry V96M)": "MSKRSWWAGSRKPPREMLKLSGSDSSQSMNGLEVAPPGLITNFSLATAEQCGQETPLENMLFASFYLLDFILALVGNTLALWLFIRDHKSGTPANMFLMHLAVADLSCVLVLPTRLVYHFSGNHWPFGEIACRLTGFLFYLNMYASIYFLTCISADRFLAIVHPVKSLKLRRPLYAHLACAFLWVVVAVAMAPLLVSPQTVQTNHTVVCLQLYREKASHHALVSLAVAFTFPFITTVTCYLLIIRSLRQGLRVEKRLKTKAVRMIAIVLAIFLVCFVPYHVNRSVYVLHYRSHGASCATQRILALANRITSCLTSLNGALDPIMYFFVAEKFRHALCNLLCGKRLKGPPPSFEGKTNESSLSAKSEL", "assay": "GLP-1 secretion from GLUTag cells expressing hGPR17L-V96M", "type": "cell-based", "details": "100 µM MDL29,951, GLUTag hGPR17L-V96M", "experimental": "(§1) GLUTag cells were maintained in Dulbecco’s Modified Eagle Medium (DMEM) supplemented with 10% fetal bovine serum and 1% penicillin–streptomycin in a humidified incubator at 37 °C and 5% CO2. For adenovirus transduction, GLUTag cells were seeded into poly-D-lysine coated 96-well plates or 4-chamber slides. The next day, cells were transduced with adenoviruses (100–1250 viral particles per cell at time of seeding) as indicated. After 24–30 h, adenovirus-containing media was changed to serum-free growth media for overnight serum starvation. The following day, GLUTag cells were used for cAMP or calcium signaling assays, GLP-1 secretion assays, or immunostaining and imaging.\n(§2) GLUTag cells were seeded into poly-D-lysine-coated 96-well plates and transduced with adenovirus as specified above and then tested for GLP-1 secretion. Medium was removed and cells were washed two times with GLP-1 secretion buffer (138 mM NaCl, 4.5 mM KCl, 4.2 mM NaHCO3, 2.5 mM CaCl2, 1.2 mM MgCl2, 10 mM HEPES, 1 mM glucose, and 0.1% bovine serum albumin, pH 7.4). […] Plates were then centrifuged at 300× g for 1 min at 4 °C, and 75 µL of the supernatant was removed and frozen at −80 °C until subsequent GLP-1 quantification. Total GLP-1 was quantified using the Meso Scale Discovery Total GLP-1 V-PLEX kit (Rockville, MD, USA; K1503PD) according to manufacturer’s instructions. […]"}, "mGPR17 [1]": {"target": "T2, mGPR17 (Mus musculus, UniProt Q6NS65)", "T2 sequence (Q6NS65 whole entry)": "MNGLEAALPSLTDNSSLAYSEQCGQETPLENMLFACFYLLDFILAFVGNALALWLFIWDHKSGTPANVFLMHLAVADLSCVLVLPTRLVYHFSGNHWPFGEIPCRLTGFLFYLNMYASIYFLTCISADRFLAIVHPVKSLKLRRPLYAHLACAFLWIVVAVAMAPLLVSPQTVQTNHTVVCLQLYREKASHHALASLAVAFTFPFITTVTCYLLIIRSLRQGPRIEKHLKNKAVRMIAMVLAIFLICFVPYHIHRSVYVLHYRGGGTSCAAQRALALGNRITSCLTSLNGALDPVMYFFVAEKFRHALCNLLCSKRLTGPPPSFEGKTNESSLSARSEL", "assay": "Endpoint cAMP in GLUTag cells expressing mGPR17", "type": "cell-based", "design": "host or cells: GLUTag cells, adenoviral transduction", "experimental": "as §1\n(§3) Endpoint cAMP measurements were conducted as follows. GLUTag cells were seeded into poly-D-lysine-coated 96-well plates and transduced with adenovirus as specified above and then tested for cAMP signaling. Medium was removed and cells were washed with cAMP stimulation buffer (Hanks’ balanced salt solution (HBSS), 20 mM HEPES, pH 7.4) and then incubated in cAMP stimulation buffer for 30 min at 37 °C and 5% CO2. Cells were then treated for 30 min with agonist and forskolin in the presence of 500 µM IBMX at 37 °C and 5% CO2. Stimulation buffer was then decanted, and cAMP lysis buffer (50 mM HEPES, 10 mM CaCl2, 0.35% Triton X-100, and 500 µM IBMX) was added and shaken at 700 rpm for 1 h. Lysate was transferred to a 384-well plate, and the cAMP levels were quantified using the Cisbio HTRF cAMP (Gi kit; Revvity, Waltham, MA, USA) according to the manufacturer’s protocol."}, "hGPR17L": {"target": "hGPR17L (Homo sapiens, UniProt Q13304)", "sequence (Q13304 whole entry)": "as the sequence (Q13304 whole entry V96M) above, with M96V counted along it", "assay": "GloSensor cAMP in HEK293 cells transfected with hGPR17L", "type": "cell-based", "design": "host or cells: GLUTag cells (murine enteroendocrine line), adenoviral transduction", "experimental": "(§4) HEK293 cells were maintained and transfected as previously described.\nLive-cell, real-time cAMP measurements were performed using Promega (Madison, WI, USA) GloSensor cAMP luminescent biosensor technology. Glosensor cAMP experiments were conducted as previously described in GLUTag cells and HEK293 cells."}, "mGPR17 [2]": {"target": "T2, mGPR17", "assay": "GLP-1 secretion from GLUTag cells expressing mGPR17", "type": "cell-based", "design": "host or cells: GLUTag cells, adenoviral transduction", "details": "100 µM MDL29,951, GLUTag mGPR17", "experimental": "as §1, §2"}, "mGPR17 [3]": {"target": "T2, mGPR17", "assay": "Calcium mobilization in HEK293 cells transfected with mGPR17", "type": "cell-based", "experimental": "as §4\nCalcium flux in HEK293 cells was measured as previously described."}, "mGPR17 [4]": {"target": "T2, mGPR17", "assay": "Membrane β-arrestin recruitment in HEK293 cells transfected with mGPR17", "type": "cell-based", "experimental": "Membrane β-arrestin recruitment measurements were conducted using a luminescent membrane β-arrestin recruitment reporter assay. HEK293 cells were seeded into white, opaque, poly-D-lysine-coated 96-well plates and transiently transfected using Lipofectamine 3000 (Thermo Fisher Scientific, Waltham, MA, USA) according to the manufacturer’s protocol on the following day. At 48 h post-transfection, cells were washed twice with assay buffer (HBSS, 20 mM HEPES, pH 7.4) and allowed to equilibrate to room temperature for 15 min in assay buffer. Cells were then loaded with coelenterazine h (Nanolight Technology, Prolume Ltd., Lakeside, AZ, USA; 5 µM final concentration) for 5 min in the dark. Luminescence was read using a SpectraMax iD3 (Molecular Devices) with 1 s integration time. Baseline luminescence was read every 2 min for 6 min. Agonist was added and then luminescence was read every 2 min for 30 min."}, "GLUTag cells": {"test_system": "GLUTag cells", "assay": "Endpoint cAMP (HTRF) in control-transduced GLUTag cells", "type": "cell-based, murine", "design": "Mean Diff. of cAMP, MDL29,951 vs FSK alone (Tukey): unit not given here", "details": "for Mean Diff. of cAMP, MDL29,951 vs FSK alone (Tukey): Ctl", "experimental": "as §1, §3"}, "[5]": {"details": "HEK293 mGPR17 versus hGPR17L and hGPR17S"}},
  "data": [
    {"smiles": "O=C(O)CCc1c(C(=O)O)[nH]c2cc(Cl)cc(Cl)c12", "note": "[MDL29,951]", "values": [
      {"measurement": "effect on F/I-stimulated GLP-1 secretion", "setting": "hGPR17L-V96M", "value": "no effect"},
      {"measurement": "concentration of maximal inhibition of forskolin-stimulated cAMP", "setting": "mGPR17 [1]; 10 µM forskolin, GLUTag mGPR17", "value": 1, "unit": "µM"},
      {"measurement": "Mean Diff. (Tukey's multiple comparisons test), cAMP, Row 10 vs. Row 11", "setting": "mGPR17 [1]; mGPR17 (100), log [MDL29,951] (M) -4.0 vs. Vehicle, Forskolin stimulation, Figure 4B", "value": -19.04},
      {"measurement": "Mean Diff. (Tukey's multiple comparisons test), cAMP, Row 9 vs. Row 11", "setting": "mGPR17 [1]; mGPR17 (100), log [MDL29,951] (M) -4.6 vs. Vehicle, Forskolin stimulation, Figure 4B", "value": -22.19},
      {"measurement": "Mean Diff. (Tukey's multiple comparisons test), cAMP, Row 8 vs. Row 11", "setting": "mGPR17 [1]; mGPR17 (100), log [MDL29,951] (M) -5.2 vs. Vehicle, Forskolin stimulation, Figure 4B", "value": -23.87},
      {"measurement": "Mean Diff. (Tukey's multiple comparisons test), cAMP, Row 7 vs. Row 11", "setting": "mGPR17 [1]; mGPR17 (100), log [MDL29,951] (M) -5.8 vs. Vehicle, Forskolin stimulation, Figure 4B", "value": -30.13},
      {"measurement": "Mean Diff. (Tukey's multiple comparisons test), cAMP, Row 6 vs. Row 11", "setting": "mGPR17 [1]; mGPR17 (100), log [MDL29,951] (M) -6.4 vs. Vehicle, Forskolin stimulation, Figure 4B", "value": -28.75},
      {"measurement": "Mean Diff. (Tukey's multiple comparisons test), cAMP, Row 5 vs. Row 11", "setting": "mGPR17 [1]; mGPR17 (100), log [MDL29,951] (M) -7.0 vs. Vehicle, Forskolin stimulation, Figure 4B", "value": -21.6},
      {"measurement": "Mean Diff. (Tukey's multiple comparisons test), cAMP, Row 4 vs. Row 11", "setting": "mGPR17 [1]; mGPR17 (100), log [MDL29,951] (M) -7.6 vs. Vehicle, Forskolin stimulation, Figure 4B", "value": -16.65},
      {"measurement": "Mean Diff. (Tukey's multiple comparisons test), cAMP, Row 3 vs. Row 11", "setting": "mGPR17 [1]; mGPR17 (100), log [MDL29,951] (M) -8.2 vs. Vehicle, Forskolin stimulation, Figure 4B", "value": -3.513},
      {"measurement": "Mean Diff. (Tukey's multiple comparisons test), cAMP, Row 2 vs. Row 11", "setting": "mGPR17 [1]; mGPR17 (100), log [MDL29,951] (M) -8.8 vs. Vehicle, Forskolin stimulation, Figure 4B", "value": -3.853},
      {"measurement": "Mean Diff. (Tukey's multiple comparisons test), cAMP, Row 1 vs. Row 11", "setting": "mGPR17 [1]; mGPR17 (100), log [MDL29,951] (M) -9.4 vs. Vehicle, Forskolin stimulation, Figure 4B", "value": -5.46},
      {"measurement": "cAMP Maximum Inhibition (% Inhibition)", "setting": "hGPR17L; 3 µM forskolin", "value": "48±2.9", "unit": "%"},
      {"measurement": "cAMP Potency (pEC50) (reversal of inhibition)", "setting": "hGPR17L; 3 µM forskolin", "value": "5.40±0.09"},
      {"measurement": "cAMP Potency (pIC50)", "setting": "hGPR17L; 3 µM forskolin", "value": "8.52±0.08"},
      {"measurement": "EC50", "setting": "hGPR17L; 3 µM forskolin, read-out: cAMP Potency EC50 (reversal of inhibition)", "value": 4000, "unit": "nM"},
      {"measurement": "IC50", "setting": "hGPR17L; 3 µM forskolin-stimulated GloSensor cAMP, read-out: cAMP Potency IC50", "value": 3, "unit": "nM"},
      {"measurement": "cAMP Effect of 100 μM MDL (% Inhibition)", "setting": "hGPR17L; 100 μM MDL29,951, 3 µM forskolin", "value": "9.0±2.1", "unit": "%"},
      {"measurement": "effect on F/I-stimulated GLP-1 secretion", "setting": "mGPR17 [2]", "value": "significantly inhibited"},
      {"measurement": "Calcium Emax (Mean Peak ΔF/F)", "setting": "mGPR17 [3]; HEK293 mGPR17", "value": "0.70±0.09"},
      {"measurement": "Calcium Potency (pEC50)", "setting": "mGPR17 [3]; HEK293 mGPR17", "value": "6.31±0.05"},
      {"measurement": "EC50", "setting": "mGPR17 [3]; HEK293 mGPR17, read-out: Calcium Potency EC50", "value": 490, "unit": "nM"},
      {"measurement": "calcium response potency, fold less potent than human GPR17 isoforms", "setting": "mGPR17 [3]; [5]", "value": "approximately 10 fold"},
      {"measurement": "reduction in calcium efficacy as compared to human GPR17 isoforms", "setting": "mGPR17 [3]; [5]", "value": "> 60", "unit": "%"},
      {"measurement": "β-arrestin Emax (Peak ΔRLU/RLU)", "setting": "mGPR17 [4]", "value": "0.54±0.03"},
      {"measurement": "β-arrestin Potency (pEC50)", "setting": "mGPR17 [4]", "value": "6.69±0.10"},
      {"measurement": "EC50", "setting": "mGPR17 [4]; read-out: β-arrestin Potency EC50", "value": 200, "unit": "nM"},
      {"measurement": "effect on PGE2-stimulated cAMP levels", "setting": "GLUTag cells; 300 nM PGE2, control transduction condition", "value": "no effect"},
      {"measurement": "effect on cAMP levels upon PMA treatment", "setting": "GLUTag cells; 300 nM PMA, control-transduced cells", "value": "no effect"},
      {"measurement": "Mean Diff. of cAMP, MDL29,951 vs FSK alone (Tukey)", "setting": "GLUTag cells; log [MDL29,951] (M) -4.0", "value": 0.00975},
      {"measurement": "Mean Diff. of cAMP, MDL29,951 vs FSK alone (Tukey)", "setting": "GLUTag cells; log [MDL29,951] (M) -4.6", "value": 0.066},
      {"measurement": "Mean Diff. of cAMP, MDL29,951 vs FSK alone (Tukey)", "setting": "GLUTag cells; log [MDL29,951] (M) -5.2", "value": 0.1185},
      {"measurement": "Mean Diff. of cAMP, MDL29,951 vs FSK alone (Tukey)", "setting": "GLUTag cells; log [MDL29,951] (M) -5.8", "value": 0.114},
      {"measurement": "Mean Diff. of cAMP, MDL29,951 vs FSK alone (Tukey)", "setting": "GLUTag cells; log [MDL29,951] (M) -6.4", "value": 0.183},
      {"measurement": "Mean Diff. of cAMP, MDL29,951 vs FSK alone (Tukey)", "setting": "GLUTag cells; log [MDL29,951] (M) -7.0", "value": 0.173},
      {"measurement": "Mean Diff. of cAMP, MDL29,951 vs FSK alone (Tukey)", "setting": "GLUTag cells; log [MDL29,951] (M) -7.6", "value": 0.2335},
      {"measurement": "Mean Diff. of cAMP, MDL29,951 vs FSK alone (Tukey)", "setting": "GLUTag cells; log [MDL29,951] (M) -8.2", "value": 0.2168},
      {"measurement": "Mean Diff. of cAMP, MDL29,951 vs FSK alone (Tukey)", "setting": "GLUTag cells; log [MDL29,951] (M) -8.8", "value": 0.0115},
      {"measurement": "Mean Diff. of cAMP, MDL29,951 vs FSK alone (Tukey)", "setting": "GLUTag cells; log [MDL29,951] (M) -9.4", "value": -0.09325},
      {"measurement": "effect on forskolin-stimulated cAMP", "setting": "GLUTag cells; control-transduced cells, 10 µM forskolin", "value": "no effect"}
    ]}
  ]
}
